Measurements taken from patent US6482858B1, “(−)-hydroxycitric acid for wound healing and immunomodulation” (priority 2001, dated 2002).
Where two headings read alike, the source gives them in different places.

How the values were obtained:
[1] = Single-subject trial of potassium HCA: skin health and psoriasis; format: in vivo, human; details: middle-aged subject
Source text: The results in the above examples led us to question whether HCA might be useful as a supplement for individuals not in need of weight loss and not under obvious stress. To this end, a middle-aged subject ingested approximately 2 to 3 grams HCA in the form of the potassium salt twice daily for 10 days. They were instructed to report on effects other than those which were to be expected, i.e., effects other than appetite control. Two quite interesting findings typical of re-regulation of corticoid metabolism emerged from this crude trial. […] These effects were similar in kind, although greater in degree, than this subject had experienced in the past when experimenting with relatively large dosages of melatonin (5 to 20 mg taken at bedtime) and, when much younger, amino acid supplementation designed to improve growth hormone release. We interpreted this finding as indicative of the normalization of melatonin and growth hormone metabolism. None of the side effects typical of elevated melatonin supplementation, such as morning grogginess or nasal congestion, were noted. Second, this subject noticed an improvement in their psoriasis during the last few days of the trial. In this subject's past experience, supplements which tended to improve their overall immune response and skin tone—including melatonin—at the same time tended to worsen their psoriasis. Therefore, this subject's experience with HCA was in line with the reports in the published literature regarding the condition as representative of corticoid and circadian dysregulation.

[2] = cited from earlier work; for % Body H2O / % Ash, wet / % Fat, wet / % Protein, wet: mean; for % Body H2O: 52.6 mmol/kg diet, six weeks; for % Ash, wet / % Fat, wet / % Protein, wet: wet weight
cortisol receptors = cortisol receptors (Homo sapiens, UniProt P04150); details: cited from earlier work
Chain of cortisol receptors (P04150 whole entry): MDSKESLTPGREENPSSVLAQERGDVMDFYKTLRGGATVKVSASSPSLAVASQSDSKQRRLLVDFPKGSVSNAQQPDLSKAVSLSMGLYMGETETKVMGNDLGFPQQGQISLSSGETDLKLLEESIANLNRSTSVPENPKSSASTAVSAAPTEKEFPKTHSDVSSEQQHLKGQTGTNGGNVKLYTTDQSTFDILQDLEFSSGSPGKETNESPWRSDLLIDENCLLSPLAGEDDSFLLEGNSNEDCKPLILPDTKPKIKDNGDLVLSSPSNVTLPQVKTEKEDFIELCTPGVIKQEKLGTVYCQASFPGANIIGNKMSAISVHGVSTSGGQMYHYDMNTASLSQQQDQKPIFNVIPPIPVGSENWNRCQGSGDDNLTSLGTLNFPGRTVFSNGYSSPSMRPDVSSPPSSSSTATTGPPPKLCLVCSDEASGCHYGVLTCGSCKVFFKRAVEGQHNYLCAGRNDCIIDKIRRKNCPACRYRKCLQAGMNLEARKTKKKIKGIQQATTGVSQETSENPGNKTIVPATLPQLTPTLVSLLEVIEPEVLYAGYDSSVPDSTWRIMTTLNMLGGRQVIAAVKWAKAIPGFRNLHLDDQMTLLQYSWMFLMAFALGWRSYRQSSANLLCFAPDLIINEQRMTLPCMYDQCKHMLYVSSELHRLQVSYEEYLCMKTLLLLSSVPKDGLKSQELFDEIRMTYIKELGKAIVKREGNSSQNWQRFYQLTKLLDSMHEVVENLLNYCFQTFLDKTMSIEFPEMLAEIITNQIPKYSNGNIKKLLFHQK

Structure (SMILES): O=C(O)CC(O)(C(=O)O)C(O)C(=O)O (single isomer, unassigned; (-)) [HCA, (−)-hydroxycitric acid]
- Side effects typical of elevated melatonin supplementation (morning grogginess, nasal congestion) ([1]; 10 days): None
- Psoriasis ([1]; approximately 2 to 3 grams twice daily for 10 days, last few days of the trial): improvement
- Skin tone ([1]; approximately 2 to 3 grams twice daily, before the first week had passed): improved markedly

Structure (SMILES): O=C([O-])CC(O)(C(=O)[O-])C(O)C(=O)[O-].[Na+].[Na+].[Na+] (stereo not drawn) [Tri-NaHCA, trisodium (−)-hydroxycitrate]
- % Body H2O ([2]; Zucker lean): 64.3%
- % Ash, wet ([2]; Zucker lean): 4.9/NA %
- % Fat, wet ([2]; Zucker lean): 8.05/NA %
- % Protein, wet ([2]; Zucker lean): 22.0/NA %
- % Body H2O ([2]; Zucker obese): 25.8%
- % Ash, wet ([2]; Zucker obese): 2.6/NA %
- % Fat, wet ([2]; Zucker obese): 59.8/NA %
- % Protein, wet ([2]; Zucker obese): 11.8/NA %
- Carcass protein and ash/mineral content compared with control ([2]; lean and obese animals): increased

Structure (SMILES): CC#C[C@]1(O)CC[C@H]2[C@@H]3CCC4=CC(=O)CCC4=C3[C@@H](c3ccc(N(C)C)cc3)C[C@@]21C [RU 486, mifepristone]
- Plasma ACTH and cortisol (cortisol receptors; 10 mg/kg.day oral, 7-14 days): marked compensatory elevations
- Subjects who developed generalized exanthem (skin rash) (cortisol receptors; 10 mg/kg.day oral, after 9 days of treatment): 8 of the 11
- Enhancement of immune function (cortisol receptors; high doses, normal volunteers, 7-14 days): does not result in measurable enhancement of immune function
